According to patent US8324395B2, “Heterocyclic compound and use thereof” (Takeda Pharmaceutical Company Limited, priority 2007, dated 2012):
pIC50: −log10 of the molar value.

tested on: human colon cancer cell HT-29; assay: Colon cancer cell HT-29 growth suppressive action in vitro; format: cell-based; conditions: 72 h, HT-29 cells, 3 days culture, SRB staining of cell protein
Method: A cell suspension (100 μL, 3,000 cells/well) of human colon cancer cell HT-29 (purchased from ATCC) was plated in a 96-well plate, and the cells were cultured at 37° C. in a 5% carbon dioxide gas incubator. The next day, 2-fold serial dilution of each test compound solution (diluted from maximum concentration 20 μM) (100 μL) was added, and the cells were cultured for 3 days. The culture medium containing the test compound was removed, and the cells were washed with phosphate buffer (PBS). A 50% trichloroacetic acid solution was added to the final concentration of 10% (v/v), and the mixture was stood overnight at 4° C., whereby the cells were fixed to the plate. Then, a dye SRB 0.4% (w/v) solution (dissolved in 1% acetic acid) was added at 50 μl/well, whereby the cell protein was fixed and stained (Skehan et al., Journal Of National Cancer Institute, vol. 82, pp. 1107-1112, 1990). The cells were washed 3 times with 1% acetic acid solution (200 μL/well), and 100 μL of an extract (10 mM Tris buffer) was added to extract the dye. The absorbance at an absorption wavelength […] was measured, and cell amount was measured as a protein amount. Taking the protein amount of the control group free of the test compound solution as 100%, the proportion of the residual protein amount of each treatment group was determined and the concentration of the compound necessary for suppressing the residual cell amount to 50% of the control (IC50 value) was calculated.

| pIC50 | SMILES |
| --- | --- |
| > 6.30 | COc1ccc(NC(=O)c2cccc(C(C)(C)C#N)c2)cc1Oc1ccc2nc(NC(=O)CN3CCN(C)CC3)sc2c1 [Example A23, 3-(1-cyano-1-methylethyl)-N-{4-methoxy-3-[(2-{[(4-methylpiperazin-1-yl)acetyl]amino}-1,3-benzothiazol-6-yl)oxy]phenyl}benzamide] |
| > 6.30 | CC(=O)Nc1nc2ccc(Oc3ccc(C)c(NC(=O)c4cccc(C(C)(C)C#N)c4)c3)cc2s1 [Example A49, N-(5-{[2-(acetylamino)-1,3-benzothiazol-6-yl]oxy}-2-methylphenyl)-3-(1-cyano-1-methylethyl)benzamide] |
| > 6.30 | CC(=O)Nc1nc2ccc(Oc3cc(NC(=O)c4cccc(C(C)(C)C#N)c4Cl)ccc3F)cc2s1 [Example A47, N-(3-{[2-(acetylamino)-1,3-benzothiazol-6-yl]oxy}-4-fluorophenyl)-2-chloro-3-(1-cyano-1-methylethyl)benzamide] |

tested on: Colon Cancer Cell HT-29 Intracellular MEK Phosphorylation; assay: Colon cancer cell HT-29 intracellular MEK phosphorylation inhibitory action in vitro; format: cell-based; conditions: Homo sapiens; HT-29 cells, 2 hr treatment; phosphorylated MEK1/2 (Ser217/221) by Western blot
Method: A cell suspension (500 μL) of human colon cancer cell HT-29 was plated in a 48-well plate (100,000 cells/well), and the cells were cultured overnight at 37° C. in the presence of 5% CO2, treated with a test compound (250 μL/well) diluted in 3-fold dilution series and cultured for two more hours. After 2 hr, the culture medium containing the test compound was removed, and the cells were lysed with SDS sample buffer (100 μL/well) and heated at 95° C. for 5 min. Thereafter, the cells were applied to SDS-PAGE, and the protein was transferred onto Sequi-Blot™ PVDF Membrane (Bio-Rad) by the Western blot method. The cells were blocked with a block-Ace solution (Snow Brand Milk Products Co., Ltd) dissolved in phosphate buffer to 5% W/V, and reacted overnight with anti-phosphorylated MEK1/2 (Ser217/221) (Cell signaling #9121) diluted 1000-fold with phosphate buffer containing 0.4% block-Ace. The membrane was washed with phosphate buffer containing 0.1% Tween 20 (Wako Pure Chemical Industries, Ltd.), and reacted at room temperature for 1 hr with HRP labeled […] (Cell signaling #7074) diluted 1000-fold with phosphate buffer containing 0.4% block-Ace. The membrane was washed in the same manner as above, chemical luminescence of a phosphorylated MEK1/2 protein labeled with the antibody, which was caused by ECL-plus Detection Reagent (Amersham bioscience), was detected by Luminescent Image Analyzer LAS-1000 (FUJIFILM Corporation). Taking the luminescence of the control group free of the test compound as 100%, the concentration (IC50 value) of the compound necessary for inhibiting the residual luminescence to 50% of the control group was calculated.

| pIC50 | SMILES |
| --- | --- |
| > 6.30 | COc1ccc(NC(=O)c2cccc(C(C)(C)C#N)c2)cc1Oc1ccc2nc(NC(=O)C3CC3)sc2c1 [Example A21, 3-(1-cyano-1-methylethyl)-N-[3-({2-[(cyclopropylcarbonyl)amino]-1,3-benzothiazol-6-yl}oxy)-4-methoxyphenyl]benzamide] |
| > 6.30 | CC(C)(C#N)c1cccc(C(=O)Nc2cccc(Oc3ccc4nc(NC(=O)CO)sc4c3)c2)c1 [Example A14, 3-(1-cyano-1-methylethyl)-N-(3-{[2-(glycoloylamino)-1,3-benzothiazol-6-yl]oxy}phenyl)benzamide] |
| > 6.30 | Cc1ccc(Oc2ccc3nc(NC(=O)CO)sc3c2)cc1NC(=O)c1cccc(C(C)(C)C#N)c1 [Example A10, 3-(1-cyano-1-methylethyl)-N-(5-{[2-(glycoloylamino)-1,3-benzothiazol-6-yl]oxy}-2-methylphenyl)benzamide] |
| > 6.30 | CC(C)(C#N)c1cccc(C(=O)Nc2cccc(Oc3ccc4nc(NC(=O)C5CC5)oc4c3)c2)c1 [Example B3, 3-(1-cyano-1-methylethyl)-N-[3-({2-[(cyclopropylcarbonyl)amino]-1,3-benzooxazol-6-yl}oxy)phenyl]benzamide] |
| > 6.30 | Cc1ccc(Oc2ccc3nc(NC(=O)C4CC4)sc3c2)cc1NC(=O)c1cccc(C(C)(C)C#N)c1 [Example A7, 3-(1-cyano-1-methylethyl)-N-[5-({2-[(cyclopropylcarbonyl)amino]-1,3-benzothiazol-6-yl}oxy)-2-methylphenyl]benzamide] |
| > 6.30 | O=C(CO)Nc1nc2ccc(Oc3cccc(C(=O)Nc4ccc(C(F)(F)F)cc4)c3)cc2s1 [Example A26, 3-{[2-(glycoloylamino)-1,3-benzothiazol-6-yl]oxy}-N-[4-(trifluoromethyl)phenyl]benzamide] |
| > 6.30 | CN1CCN(CC(=O)Nc2nc3ccc(Oc4cccc(NC(=O)c5cccc(C6(C#N)CC6)c5)c4)cc3s2)CC1 [Example A16, 3-(1-cyanocyclopropyl)-N-{3-[(2-{[(4-methylpiperazin-1-yl)acetyl]amino}-1,3-benzothiazol-6-yl)oxy]phenyl}benzamide] |

target: T1, BRAF (V600E) kinase (Homo sapiens, UniProt P15056, V600E); assay: Determination of BRAF (V600E) kinase inhibitory activity; format: biochemical; conditions: 1.0 μM test compound; BRAF (V600E) enzyme, GST-MEK1 (K96R) substrate, [γ-32P]ATP; read-out: Inhibitory rate (%) at 1.0 μM
T1 construct: Flag (N); made in house; host or cells: SF-21 insect cells, recombinant baculovirus BAC-V600E
T1 sequence (P15056 457-717 V600E limits assumed): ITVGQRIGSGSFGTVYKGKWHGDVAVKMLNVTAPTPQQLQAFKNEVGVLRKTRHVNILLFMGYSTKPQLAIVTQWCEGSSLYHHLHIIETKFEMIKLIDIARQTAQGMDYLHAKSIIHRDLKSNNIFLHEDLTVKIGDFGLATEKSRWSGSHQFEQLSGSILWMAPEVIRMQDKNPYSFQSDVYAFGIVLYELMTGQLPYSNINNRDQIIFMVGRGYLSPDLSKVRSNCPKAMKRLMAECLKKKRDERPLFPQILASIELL
Method: Human BRAF gene was cloned by PCR using human Testis cDNA library (Clontech) as a template. The primer used for PCR was prepared from base sequence (Genbank Accession No.: NM_004333) information of BRAF gene by adding a base sequence encoding flag peptide and a recognition sequence of the restriction enzyme to area encoding the BRAF kinase domain region, so that the protein contains an N-terminal. Flag. The primer base sequence is shown below.
The PCR reaction was conducted using Pyrobest (Takara Shuzo Co., Ltd). The obtained PCR product was electrophoresed on agarose gel (1%), the DNA fragment amplified by PCR was recovered from the gel, and then digested with restriction enzymes EcoRI and SalI. The DNA treated with the restriction enzymes was electrophoresed on agarose gel (1%), and the obtained DNA fragment was recovered. The recovered DNA fragment was ligated to plasmid pFASTBAC1 (Invitrogen) digested with restriction enzymes EcoRI and SalI to give expression plasmid pFB-BRAF, and the base sequence of the insert fragment was confirmed. In addition, mutation was introduced into V600E using a Quick change Site Directed Mutagenesis kit (Stratagene). The base sequences of the primers used are shown in the following.
The obtained plasmid was sequenced to confirm the introduction of mutation into V600E. The DNA was digested with restriction enzymes EcoRI and SalI, DNA treated with the restriction enzymes was electrophoresed on agarose gel (1%), and the obtained DNA fragment was recovered. The recovered DNA fragment was ligated to plasmid pFASTBAC1 (Invitrogen) digested with restriction enzymes EcoRI and SalI to give expression plasmid pFB-V600E.
Using BAC-TO-BAC Baculovirus Expression System (Invitrogen), virus stock BAC-V600E of recombinant baculovirus was prepared.
SF-21 cells were sown at 1×10^6 cells/mL to Sf-900II SFM medium (1 L, Invitrogen) containing 10% fetal bovine serum (Trace), 50 mg/L Gentamicin (Invitrogen) and 0.1% Pluronic F-68 (Invitrogen), and shaking culture was performed using a 2 L volume Erlenmeyer flask at 27° C., 100 rpm. After culturing for 24 hr, recombinant baculovirus BAC-V600E (13.4 mL) was added to the mixture, and the mixture was further cultured for 3 days. The culture medium was centrifuged at 2,000 rpm for 5 min to give virus-infected cells. The infected cells were washed with a phosphate buffered saline (Invitrogen), centrifuged under the same conditions, and the cells were preserved at −80° C. The cryopreserved cells were thawed in ice, suspended in buffer A (50 mM Tris buffer (30 mL, pH 7.4) containing 20% glycerol, 0.15 M NaCl) supplemented with Complete Protease Inhibitor (Boehringer), and ruptured 3 times with a Polytron homogenizer (Kinematica) at 20,000 rpm for 30 sec. The ruptured medium was clarified by centrifugation at 40,000 rpm for 30 min and filtered with a 0.45 μm filter. The filtrate was passed through a column packed with Anti-FLAG M2 Affinity Gel (4 mL, Sigma) at a flow rate of about 0.5 mL/min. The column was washed with buffer A, and eluted with buffer A containing 100 μg/mL of FLAG peptide. The buffer of this eluate was exchanged using NAP25 column (Amersham Bioscience) equilibrated with buffer A and the fractions were cryopreserved at −80° C.
A test compound (2.5 μL) dissolved in dimethyl sulfoxide (DMSO) was added to 37.5 μL of a reaction mixture (25 mM HEPES (pH 7.5), 10 mM magnesium acetate, 1 mM dithiothreitol) containing BRAF (V600E) enzyme (30 ng) and recombinant type protein GST-MEK1 (K96R) 250 ng, and the mixture was incubated at room temperature for 10 min. ATP solution (10 μL, 2.5 μM ATP, 0.1 μCi [γ-^32P]ATP) was added to the obtained mixture, and the mixture was reacted at room temperature for 20 min. The reaction was quenched by adding 50 μL of ice-cooled. 20% trichloroacetic acid (Wako Pure Chemical Industries, Ltd.) to the reaction mixture. […]

| SMILES | inhibition at 1 µM [%] |
| --- | --- |
| COc1ccc(NC(=O)c2cccc(C(C)(C)C#N)c2)cc1Oc1ccc2nc(NC(=O)C3CC3)sc2c1 [Example A21, 3-(1-cyano-1-methylethyl)-N-[3-({2-[(cyclopropylcarbonyl)amino]-1,3-benzothiazol-6-yl}oxy)-4-methoxyphenyl]benzamide] | 98 |
| O=C(Nc1ccc(C(F)(F)F)cc1)c1cccc(Oc2ccc3nc(NC(=O)C4CC4)sc3c2)c1 [Example A25, 3-({2-[(cyclopropylcarbonyl)amino]-1,3-benzothiazol-6-yl}oxy)-N-[4-(trifluoromethyl)phenyl]benzamide] | 100 |
| N#CC1(c2cccc(C(=O)Nc3cccc(Oc4ccc5nc(NC(=O)c6cocn6)sc5c4)c3)c2)CC1 [Example A15, N-[6-(3-{[3-(1-cyanocyclopropyl)benzoyl]amino}phenoxy)-1,3-benzothiazol-2-yl]-1,3-oxazole-4-carboxamide] | 100 |
| Cc1ccc(Oc2ccc3nc(NC(=O)CO)sc3c2)cc1NC(=O)c1cccc(C2(C#N)CC2)c1 [Example A6, 3-(1-cyanocyclopropyl)-N-(5-{[2-(glycoloylamino)-1,3-benzothiazol-6-yl]oxy}-2-methylphenyl)benzamide] | 99 |
| N#CC1(c2cccc(C(=O)Nc3cccc(Oc4ccc5nc(NC(=O)C6CC6)sc5c4)c3)c2)CC1 [Example A1, 3-(1-cyanocyclopropyl)-N-[3-({2-[(cyclopropylcarbonyl)amino]-1,3-benzothiazol-6-yl}oxy)phenyl]benzamide] | 98 |

Results, then the molecule that gave them:

| inhibition at 1 µM [%] | SMILES |
| --- | --- |
| 100 | O=C(Nc1cccc(C(F)(F)F)c1)c1cccc(Oc2ccc3nc(NC(=O)C4CC4)sc3c2)c1 [Example A29, 3-({2-[(cyclopropylcarbonyl)amino]-1,3-benzothiazol-6-yl}oxy)-N-[3-(trifluoromethyl)phenyl]benzamide] |
| 100 | O=C(Nc1cccc(Oc2ccc3nc(NC(=O)C4CC4)oc3c2)c1)c1cccc(C(F)(F)F)c1 [Example B1, N-[3-({2-[(cyclopropylcarbonyl)amino]-1,3-benzooxazol-6-yl}oxy)phenyl]-3-(trifluoromethyl)benzamide] |
| 99 | O=C(Nc1cccc(Oc2ccc3nc(NC(=O)C4CC4)[nH]c3c2)c1)c1cccc(C(F)(F)F)c1 [Example C1, N-[3-({2-[(cyclopropylcarbonyl)amino]-1H-benzimidazol-6-yl}oxy)phenyl]-3-(trifluoromethyl)benzamide] |
